{"source": "ChEMBL document CHEMBL3046933", "about": "“Synthesis and evaluation of a series of aminocyanopyridines as antimicrobial agents” (2011)", "format_in_all_cases": "functional", "key": {"Micrococcus luteus [1]": {"tested_on": "Micrococcus luteus", "test": "Antibacterial activity against Micrococcus luteus NRRLB 4375 at 100 ug/ml after 24 hr by disk diffusion method", "details": "NRRLB 4375, 24 h, read-out: DIZ"}, "Pseudomonas aeruginosa [2]": {"tested_on": "Pseudomonas aeruginosa", "test": "Antibacterial activity against Pseudomonas aeruginosa […] by macrobroth dilution method"}, "Pseudomonas aeruginosa [3]": {"tested_on": "Pseudomonas aeruginosa", "test": "Antibacterial activity against Pseudomonas aeruginosa […] at 100 ug/ml after 24 hr by disk diffusion method", "details": "read-out: DIZ"}, "Bacillus subtilis [4]": {"tested_on": "Bacillus subtilis", "test": "Antibacterial activity against Bacillus subtilis RSKK 244 at 100 ug/ml after 24 hr by disk diffusion method", "details": "RSKK 244, 24 h, read-out: DIZ"}, "Bacillus subtilis [5]": {"tested_on": "Bacillus subtilis", "test": "Antibacterial activity against Bacillus subtilis RSKK 244 by macrobroth dilution method"}, "Micrococcus luteus [6]": {"tested_on": "Micrococcus luteus", "test": "Antibacterial activity against Micrococcus luteus NRRLB 4375 by macrobroth dilution method"}, "Candida albicans": {"tested_on": "Candida albicans", "test": "Antifungal activity against Candida albicans ATCC 90028 at 100 ug/ml by disk diffusion method", "details": "read-out: DIZ"}, "Priestia megaterium": {"tested_on": "Priestia megaterium", "test": "Antibacterial activity against Bacillus megaterium clinical isolate at 100 ug/ml after 24 hr by disk diffusion method", "details": "read-out: DIZ"}}}
{"smiles": "Cc1ccc(-c2c(C#N)c(N)nc3c2CCCCC3)s1", "values": [{"measurement": "zone of inhibition at 100 µg/mL", "setting": "Micrococcus luteus [1]", "value": 20, "unit": "mm"}, {"measurement": "MIC", "setting": "Pseudomonas aeruginosa [2]", "value": 25, "unit": "µg/mL"}, {"measurement": "zone of inhibition at 100 µg/mL", "setting": "Pseudomonas aeruginosa [3]", "value": 19, "unit": "mm"}, {"measurement": "zone of inhibition at 100 µg/mL", "setting": "Bacillus subtilis [4]", "value": 10, "unit": "mm"}, {"measurement": "MIC", "setting": "Bacillus subtilis [5]", "value": 37.5, "unit": "µg/mL"}, {"measurement": "MIC", "setting": "Micrococcus luteus [6]", "value": 25, "unit": "µg/mL"}]}
{"smiles": "OC(Cn1cncn1)(Cn1cncn1)c1ccc(F)cc1F", "note": "[FLUCONAZOLE]", "values": [{"measurement": "MIC", "setting": "Micrococcus luteus [6]", "value": 8, "unit": "µg/mL"}]}
{"smiles": "CC(=O)N1CCN(c2ccc(OCC3COC(Cn4ccnc4)(c4ccc(Cl)cc4Cl)O3)cc2)CC1", "note": "(stereo not drawn) [KETOCONAZOLE]", "values": [{"measurement": "zone of inhibition at 100 µg/mL", "setting": "Candida albicans", "value": 16, "unit": "mm"}]}
{"smiles": "Cc1ccc(-c2c(C#N)c(N)nc3c2CCC3)s1", "values": [{"measurement": "zone of inhibition at 100 µg/mL", "setting": "Micrococcus luteus [1]", "value": 12, "unit": "mm"}, {"measurement": "MIC", "setting": "Pseudomonas aeruginosa [2]", "value": 25, "unit": "µg/mL"}, {"measurement": "zone of inhibition at 100 µg/mL", "setting": "Pseudomonas aeruginosa [3]", "value": 15, "unit": "mm"}, {"measurement": "zone of inhibition at 100 µg/mL", "setting": "Bacillus subtilis [4]", "value": 15, "unit": "mm"}, {"measurement": "MIC", "setting": "Bacillus subtilis [5]", "value": 25, "unit": "µg/mL"}, {"measurement": "MIC", "setting": "Micrococcus luteus [6]", "value": 37.5, "unit": "µg/mL"}]}
{"smiles": "Cc1ccc(-c2c(C#N)c(N)nc3c2CCCCC3)o1", "values": [{"measurement": "zone of inhibition at 100 µg/mL", "setting": "Micrococcus luteus [1]", "value": 9, "unit": "mm"}, {"measurement": "MIC", "setting": "Pseudomonas aeruginosa [2]", "value": 25, "unit": "µg/mL"}, {"measurement": "zone of inhibition at 100 µg/mL", "setting": "Pseudomonas aeruginosa [3]", "value": 14, "unit": "mm"}, {"measurement": "MIC", "setting": "Micrococcus luteus [6]", "value": 25, "unit": "µg/mL"}]}
{"smiles": "Cc1ccc(-c2c(C#N)c(N)nc3c2CCCC3)o1", "values": [{"measurement": "zone of inhibition at 100 µg/mL", "setting": "Micrococcus luteus [1]", "value": 11, "unit": "mm"}, {"measurement": "MIC", "setting": "Micrococcus luteus [6]", "value": 37.5, "unit": "µg/mL"}]}
{"smiles": "CC1(C)S[C@@H]2[C@H](NC(=O)[C@H](N)c3ccccc3)C(=O)N2[C@H]1C(=O)O", "note": "[AMPICILLIN]", "values": [{"measurement": "zone of inhibition at 100 µg/mL", "setting": "Micrococcus luteus [1]", "value": 31, "unit": "mm"}, {"measurement": "zone of inhibition at 100 µg/mL", "setting": "Priestia megaterium", "value": 10, "unit": "mm"}, {"measurement": "zone of inhibition at 100 µg/mL", "setting": "Bacillus subtilis [4]", "value": 15, "unit": "mm"}, {"measurement": "MIC", "setting": "Micrococcus luteus [6]", "value": 8, "unit": "µg/mL"}]}
{"smiles": "CN(C)[C@@H]1C(O)=C(C(N)=O)C(=O)[C@@]2(O)C(O)=C3C(=O)c4c(O)cccc4[C@@](C)(O)[C@H]3C[C@@H]12", "note": "[TETRACYCLINE]", "values": [{"measurement": "zone of inhibition at 100 µg/mL", "setting": "Micrococcus luteus [1]", "value": 28, "unit": "mm"}]}
{"smiles": "Cc1ccsc1-c1c(C#N)c(N)nc2c1CCCCC2", "values": [{"measurement": "MIC", "setting": "Pseudomonas aeruginosa [2]", "value": 12.5, "unit": "µg/mL"}, {"measurement": "zone of inhibition at 100 µg/mL", "setting": "Pseudomonas aeruginosa [3]", "value": 17, "unit": "mm"}, {"measurement": "zone of inhibition at 100 µg/mL", "setting": "Bacillus subtilis [4]", "value": 10, "unit": "mm"}, {"measurement": "MIC", "setting": "Bacillus subtilis [5]", "value": 37.5, "unit": "µg/mL"}]}
{"smiles": "Cc1ccsc1-c1c(C#N)c(N)nc2c1CCC2", "values": [{"measurement": "zone of inhibition at 100 µg/mL", "setting": "Micrococcus luteus [1]", "value": 11, "unit": "mm"}, {"measurement": "zone of inhibition at 100 µg/mL", "setting": "Bacillus subtilis [4]", "value": 13, "unit": "mm"}, {"measurement": "MIC", "setting": "Bacillus subtilis [5]", "value": 37.5, "unit": "µg/mL"}, {"measurement": "MIC", "setting": "Micrococcus luteus [6]", "value": 37.5, "unit": "µg/mL"}]}
{"smiles": "Cc1ccsc1-c1c(C#N)c(N)nc2c1CCCC2", "values": [{"measurement": "zone of inhibition at 100 µg/mL", "setting": "Micrococcus luteus [1]", "value": 9, "unit": "mm"}, {"measurement": "MIC", "setting": "Pseudomonas aeruginosa [2]", "value": 25, "unit": "µg/mL"}, {"measurement": "zone of inhibition at 100 µg/mL", "setting": "Pseudomonas aeruginosa [3]", "value": 9, "unit": "mm"}, {"measurement": "MIC", "setting": "Micrococcus luteus [6]", "value": 37.5, "unit": "µg/mL"}]}
{"smiles": "Cc1ccc(-c2c(C#N)c(N)nc3c2CCC3)o1", "values": [{"measurement": "zone of inhibition at 100 µg/mL", "setting": "Micrococcus luteus [1]", "value": 15, "unit": "mm"}, {"measurement": "MIC", "setting": "Pseudomonas aeruginosa [2]", "value": 12.5, "unit": "µg/mL"}, {"measurement": "zone of inhibition at 100 µg/mL", "setting": "Pseudomonas aeruginosa [3]", "value": 17, "unit": "mm"}, {"measurement": "zone of inhibition at 100 µg/mL", "setting": "Bacillus subtilis [4]", "value": 22.5, "unit": "mm"}, {"measurement": "MIC", "setting": "Bacillus subtilis [5]", "value": 12.5, "unit": "µg/mL"}, {"measurement": "MIC", "setting": "Micrococcus luteus [6]", "value": 25, "unit": "µg/mL"}]}
{"smiles": "CC1(C)S[C@@H]2[C@H](NC(=O)Cc3ccccc3)C(=O)N2[C@H]1C(=O)O", "note": "[PENICILLIN G]", "values": [{"measurement": "zone of inhibition at 100 µg/mL", "setting": "Micrococcus luteus [1]", "value": 9, "unit": "mm"}]}
{"smiles": "Cc1ccc(-c2c(C#N)c(N)nc3c2CCCC3)s1", "values": [{"measurement": "zone of inhibition at 100 µg/mL", "setting": "Micrococcus luteus [1]", "value": 12, "unit": "mm"}, {"measurement": "MIC", "setting": "Pseudomonas aeruginosa [2]", "value": 12.5, "unit": "µg/mL"}, {"measurement": "zone of inhibition at 100 µg/mL", "setting": "Pseudomonas aeruginosa [3]", "value": 20, "unit": "mm"}, {"measurement": "MIC", "setting": "Micrococcus luteus [6]", "value": 25, "unit": "µg/mL"}]}
